Experimental findings from ChEMBL document CHEMBL4002572, “Development of CXCR4 modulators by virtual HTS of a novel amide-sulfamide compound library” (Eur J Med Chem, 2017) are described below.

Data set [1] relates to Mus musculus. In words: Anti-inflammatory activity in mouse assessed as inhibition of xylene-induced ear edema at 10 mg/kg, ip administered 30 mins post xylene challenge measured after 2 hrs relative to control. The format is functional.
Data set [2] relates to Mus musculus. In words: Anti-inflammatory activity in xylene-induced ear edema mouse model assessed as reduction in ear thickness at 10 mg/kg, ip administered 30 mins post xylene challenge measured after 2 hrs by hematoxylin/eosin dye-based assay. The format is functional, organism-based.
For data set [3], the target named is C-X-C chemokine receptor type 4 (Homo sapiens) (UniProt P61073). Put plainly: Inhibition of CXCR4/CXCL12 interaction-mediated chemotaxis in human MDA-MB-231 cells assessed as inhibition of cell invasion at 100 nM after 22 hrs by hematoxylin/eosin dye-based matrigel assay relative to control.
C-X-C chemokine receptor type 4 (Homo sapiens), sequence (P61073 whole entry): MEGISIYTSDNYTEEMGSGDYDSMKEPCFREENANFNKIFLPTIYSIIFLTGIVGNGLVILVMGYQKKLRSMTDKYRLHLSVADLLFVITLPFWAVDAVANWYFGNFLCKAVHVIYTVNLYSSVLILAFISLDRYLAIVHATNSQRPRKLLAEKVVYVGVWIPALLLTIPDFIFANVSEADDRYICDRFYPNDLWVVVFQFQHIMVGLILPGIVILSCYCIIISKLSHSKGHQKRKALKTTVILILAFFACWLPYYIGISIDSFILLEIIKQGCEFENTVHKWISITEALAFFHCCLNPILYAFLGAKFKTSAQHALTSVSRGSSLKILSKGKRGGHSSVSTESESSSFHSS
For data set [4] the target is unchanged. In words: Displacement of biotinylated-TN14003 from CXCR4 in human MDA-MB-231 cells assessed as reduction in fluorescence preincubated for 10 mins followed by biotinylated-TN14003 addition measured after 30 mins by streptavidin-rhodamine staining based microscopic analysis. It counts as cell-based.
The test system of data set [5] is Mus musculus. Put plainly: Anti-inflammatory activity in xylene-induced ear edema mouse model assessed as reduction in inflammatory cells at 10 mg/kg, ip administered 30 mins post xylene challenge measured after 2 hrs by hematoxylin/eosin dye-based assay. The format is functional, organism-based.
Data set [6] relates to Mus musculus. Put plainly: Anti-inflammatory activity in xylene-induced ear edema mouse model assessed as reduction in edema volume at 10 mg/kg, ip administered 30 mins post xylene challenge measured after 2 hrs by hematoxylin/eosin dye-based assay. The format is functional, organism-based.
The target of data set [7] is C-X-C chemokine receptor type 4 (Mus musculus) (UniProt P70658). In words: Inhibition of CXCR4 in mouse J774A.1 cells assessed as reduction in Crohn's disease-associated Escherichia coli 131 infection-induced TNF-alpha level at 200 nM relative to control. It counts as cell-based.
C-X-C chemokine receptor type 4 (Mus musculus), sequence (P70658 whole entry): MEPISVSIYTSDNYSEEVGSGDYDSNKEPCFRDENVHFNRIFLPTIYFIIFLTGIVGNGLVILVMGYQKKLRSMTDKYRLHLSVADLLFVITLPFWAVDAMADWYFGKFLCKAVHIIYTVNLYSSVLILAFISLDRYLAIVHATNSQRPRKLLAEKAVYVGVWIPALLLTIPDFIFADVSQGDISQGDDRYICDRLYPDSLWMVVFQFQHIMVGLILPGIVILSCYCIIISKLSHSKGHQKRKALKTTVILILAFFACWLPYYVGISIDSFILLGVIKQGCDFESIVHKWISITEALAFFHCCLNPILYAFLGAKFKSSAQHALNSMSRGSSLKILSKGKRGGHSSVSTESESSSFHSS
For another data set, the system named is MDA-MB-231. In words: Cytotoxicity against human MDA-MB-231 cells assessed as cell viability at 10 uM measured after 24 hrs by MTT assay. The format is cell-based. Conditions: mda-mb-231, 24 h. On the technique in general: Tetrazolium dyes change colour on reduction, which living cells bring about.
Data set [8] concerns the target C-X-C chemokine receptor type 4 (Homo sapiens) (UniProt P61073). Put plainly: Inhibition of CXCR4/CXCL12 (unknown origin) interaction-mediated Akt phosphorylation by western blot analysis. (In western blotting, separated proteins are transferred to a membrane and probed.)
Data set [9] has the same target. In words: Potency index, ratio of AMD3100 EC to compound EC for displacement of biotinylated TN14003 from CXCR4 in human MDA-MB-231 cells. It counts as cell-based.
Data set [10] relates to Mus musculus. In words: Anti-inflammatory activity in Swiss albino mouse assessed as inhibition of xylene-induced ear edema at 30 mg/kg, ip pretreated for 1 hr followed by xylene challenge measured after 30 mins relative to control. The format is functional.

Activity calls are given as the source filed them. The calls are words filed in the database; no cut-off is given here.

With `Cc1nnsc1C(=O)NCc1ccc(CNS(=O)(=O)c2ccc(F)c(F)c2)cc1`, the inhibition in vivo (commonly the percentage by which the read-out fell short of the control) at 10 mg/kg in the data set on Mus musculus [1] came to 54%. The result in the data set on Mus musculus [2], with Mus musculus [5] and in the data set on Mus musculus [6] was Active. Moreover, the inhibition – broadly, the relative decrease from the control value, in per cent – in data set [3] is 40%. Moreover, the EC in [4] came to 10 nM.
As to `O=C(NCc1ccc(CNS(=O)(=O)c2ccc3c(c2)CCO3)cc1)c1cccnc1`, the inhibition in vivo at 10 mg/kg with Mus musculus [1] was found to be 10%. In data set [3], the inhibition turned out to be 60%. In addition, the EC in data set [4] was 1000 nM.
`O=C(NCc1ccc(CNS(=O)(=O)c2ccccc2F)cc1)c1cc2ccccn2n1`: the inhibition in data set [3] is 40%. For the same compound, the EC in data set [4] stood at 100 nM.
The like results for `O=C(NCc1ccc(CNS(=O)(=O)c2cccc(F)c2)cc1)c1cc2ccccn2n1` were, in that order, 40% and 1000 nM.
Consider `O=C(NCc1ccc(CNS(=O)(=O)c2ccc(F)cc2F)cc1)c1cncnc1`, for which the figures for the inhibition in [7], in data set [3] and in data set [8] were 67%, 74% and “Dose-dependent effect”, respectively. In the data set with Mus musculus [1], the inhibition in vivo at 10 mg/kg was 56%. Also, the outcome in the data set with Mus musculus [2], with Mus musculus [5] and in the data set on Mus musculus [6] was Active. Also, the Activity entry with MDA-MB-231 is given as “Non-Toxic”. Also, the Ratio in [9] worked out at 1000. For the same compound, in data set [4], the EC was determined as 1 nM.
Turning to `Cc1ccc(-c2cc(C(F)(F)F)nn2-c2ccc(S(N)(=O)=O)cc2)cc1` [CELECOXIB], the inhibition in vivo at 30 mg/kg with Mus musculus [10] stood at 47%.
In the case of `Cc1cc(C(=O)NCc2ccc(CNS(=O)(=O)c3ccc4c(c3)CCO4)cc2)n(C)n1`, the inhibition in vivo at 10 mg/kg in the data set with Mus musculus [1] turned out to be 35%. Moreover, the inhibition result in [3] is “Active”. Besides, the EC in data set [4] was 1000 nM.
The matching figures for `O=C(NCc1ccc(CNS(=O)(=O)c2ccc3c(c2)CCO3)cc1)c1scc2c1OCCO2`: 0%, 68% and 10 nM.
`O=C(NCc1ccc(CNS(=O)(=O)c2ccc(F)c(F)c2)cc1)c1cnc2ccccn12`: in data set [4], the EC was > 1000 nM.
For `O=C(NCc1ccc(CNS(=O)(=O)c2ccc3c(c2)CCO3)cc1)c1cccc2c1COC2`, the inhibition in data set [3] stood at 40%. The EC in data set [4] is 1000 nM.
Consider `O=C(NCc1ccc(CNS(=O)(=O)c2ccc3c(c2)CCO3)cc1)c1cc2ccccn2n1`, for which, in data set [3], the inhibition is 40%. For the same compound, the Ratio in [9] amounted to 1000. The EC in data set [4] was 1 nM.
`Cn1nccc1C(=O)NCc1ccc(CNS(=O)(=O)c2ccc3c(c2)CCO3)cc1`: the inhibition in vivo at 10 mg/kg in the data set on Mus musculus [1] came to 38%. In [3], the inhibition worked out at 40%. In addition, in data set [4], the EC was 1000 nM.
For the compound `O=C(NCc1ccc(CNS(=O)(=O)c2ccc(F)cc2F)cc1)c1ncc[nH]1`, the EC in data set [4] was > 1000 nM.
`c1cc(CN2CCCNCCNCCCNCC2)ccc1CN1CCCNCCNCCCNCC1`: in [3], the inhibition stood at 55%.
